The source of these data is BindingDB's records for doi:10.7270/Q24T6GSH (The Scripps Research Institute Molecular Screening Center, 2007).

The target of the first assay is T1, Isoform 2 of Nuclear receptor ROR-alpha (Alpha-2) (Homo sapiens, UniProt P35398).
T1 sequence (P35398 whole entry): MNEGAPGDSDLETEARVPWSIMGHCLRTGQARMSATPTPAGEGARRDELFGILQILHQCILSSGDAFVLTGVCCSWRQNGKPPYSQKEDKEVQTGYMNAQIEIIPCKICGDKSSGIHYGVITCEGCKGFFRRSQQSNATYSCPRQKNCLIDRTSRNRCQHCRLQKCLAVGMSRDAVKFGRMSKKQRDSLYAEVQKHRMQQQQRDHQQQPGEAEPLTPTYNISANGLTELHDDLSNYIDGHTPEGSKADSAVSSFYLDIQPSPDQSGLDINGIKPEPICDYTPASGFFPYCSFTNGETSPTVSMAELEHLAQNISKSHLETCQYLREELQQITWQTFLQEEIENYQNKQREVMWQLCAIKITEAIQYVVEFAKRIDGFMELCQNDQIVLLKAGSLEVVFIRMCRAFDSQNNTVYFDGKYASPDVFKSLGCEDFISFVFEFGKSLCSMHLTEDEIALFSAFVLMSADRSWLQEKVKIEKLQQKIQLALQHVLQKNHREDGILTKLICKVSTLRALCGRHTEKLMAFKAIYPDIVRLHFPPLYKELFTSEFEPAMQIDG
Description: RORA Gal4 reporter activation in CHO-K1 cells, dose response, counter-screen for SF-1 activator project, cell-based, Gal4-RORA LBD, luciferase luminescence (AID 675).
Conditions: not given
A general note: Counterscreens check selectivity or assay interference.
Take `COc1ccc(C(=O)CC=Nc2cccc(C)n2)cc1OC`: the EC50 was 749 nM.

`CC(=O)c1c(C)[nH]c(C(=O)Nc2ccc3c(c2)OCCO3)c1C`: the concentration giving a half-maximal response (EC50) turned out to be 400 nM.

For the compound `COc1ccc2c(c1OC)C(=O)N1c3ccccc3SC21` (configuration not stated) [1,2-dimethoxy-4bH-isoindolo[1,2-b][1,3]benzothiazol-11-one], the EC50 turned out to be 766 nM.

Compound `O=C(CSc1ccccn1)c1ccc2c(c1)OCO2` [1-(1,3-benzodioxol-5-yl)-2-(2-pyridinylthio)ethanone] came in with an EC50 of 1230 nM.

In turn, `O=C(COc1ncnc2ccccc12)c1ccc2c(c1)OCCO2` [1-(2,3-dihydro-1,4-benzodioxin-6-yl)-2-(4-quinazolinyloxy)ethanone] yielded an EC50 of 615 nM.

In turn, `CCCn1c(C)cc(C(=O)COc2ncnc3sccc23)c1C` [1-(2,5-dimethyl-1-propyl-3-pyrrolyl)-2-(4-thieno[2,3-d]pyrimidinyloxy)ethanone] displayed an EC50 of 1990 nM.

Regarding `N#CCc1ccc(NC(=O)Nc2cccc(Cl)c2)cc1` [1-(3-chlorophenyl)-3-[4-(cyanomethyl)phenyl]urea], a half-maximal effect (EC50) was put at 1650 nM.

`CN(C)c1ccc(NC(=O)Nc2cccc(Cl)c2)cc1` [1-(3-chlorophenyl)-3-[4-(dimethylamino)phenyl]urea] returned an EC50 greater than 407 nM.

`Clc1ccc(-n2ncc3c(NCc4ccccn4)ncnc32)cc1` [1-(4-chlorophenyl)-N-(2-pyridinylmethyl)-4-pyrazolo[3,4-d]pyrimidinamine] displayed a concentration for a half-maximal effect (EC50) of 2290 nM.

The compound `COc1ccc2nc(Nc3nc(C)c(C(C)=O)s3)sc2c1` [1-[2-[(6-methoxy-1,3-benzothiazol-2-yl)amino]-4-methyl-1,3-thiazol-5-yl]ethanone] displayed an EC50 greater than 1220 nM.

Compound `O=C(Cc1ccccc1)n1nc(-c2ccccc2)nc1NCc1ccco1` [1-[5-(2-furanylmethylamino)-3-phenyl-1,2,4-triazol-1-yl]-2-phenylethanone] registered an EC50 greater than 11000 nM.

Compound `CCOC(=O)C1CCN(S(=O)(=O)c2ccc(-c3nc4ccccc4s3)s2)CC1` [1-[[5-(1,3-benzothiazol-2-yl)-2-thienyl]sulfonyl]isonipecotic acid ethyl ester] showed an EC50 of 1720 nM.

Compound `COc1ccc2c(c1)CCc1c(C(=O)N3CCCCCC3)noc1-2` [1-azepanyl-(7-methoxy-4,5-dihydrobenzo[g][1,2]benzoxazol-3-yl)methanone] registered an EC50 of 1570 nM.

In the case of `COc1ccc(CNC(=O)NC2CCCCC2)cc1` [1-cyclohexyl-3-[(4-methoxyphenyl)methyl]urea], the EC50 is greater than 99000 nM.

`COc1ccc(-c2cc(C(=O)N3CCCCC3)no2)cc1OC` [1-{[5-(3,4-dimethoxyphenyl)isoxazol-3-yl]carbonyl}piperidine] came in with an EC50 of 3920 nM.

Take `Cc1cc(C(=O)OCC(=O)N2CCc3ccccc32)c(C)o1` [2,5-dimethyl-3-furancarboxylic acid [2-(2,3-dihydroindol-1-yl)-2-oxoethyl] ester]: the EC50 worked out at 897 nM.

As for `CC(C)(C)n1ncc2c(=O)n(CC(=O)NCc3ccccc3Cl)cnc21` [2-(1-tert-butyl-4-keto-pyrazolo[3,4-d]pyrimidin-5-yl)-N-(2-chlorobenzyl)acetamide], the EC50 is greater than 136 nM.

`COc1cc(N2CCCC2)c(OC)cc1C=c1sc2nc3ccccc3n2c1=O` [2-(2,5-dimethoxy-4-pyrrolidino-benzylidene)thiazolo[3,2-a]benzimidazol-1-one] came in with an EC50 of 11000 nM.

Turning to `CCn1c(SCC(=O)c2cccs2)nnc1-c1ccco1` [2-(4-Ethyl-5-furan-2-yl-4H-[1,2,4]triazol-3-ylsulfanyl)-1-thiophen-2-yl-ethanone], the response was half-maximal at 5820 nM (EC50).

On to `CN(C)c1oc(-c2ccc(OCc3ccccc3)cc2)nc1C#N` [2-(4-benzoxyphenyl)-5-(dimethylamino)oxazole-4-carbonitrile], for which the EC50 worked out at 2220 nM.

With `CCOc1ccc(N2C(=O)c3ccccc3C2O)cc1` (configuration not stated) [2-(4-ethoxyphenyl)-3-hydroxy-3H-isoindol-1-one], the EC50 was 886 nM.

In turn, `O=C(CSc1nc2ccccc2o1)Nc1nc2ccccc2s1` [2-(Benzooxazol-2-ylsulfanyl)-N-benzothiazol-2-yl-acetamide] came in with an EC50 greater than 11000 nM.

Compound `Cc1cccc(-n2ccnc2SCC(=O)Nc2nccs2)c1` [2-[1-(3-methylphenyl)imidazol-2-yl]sulfanyl-N-(1,3-thiazol-2-yl)acetamide] gave a half-maximal effective concentration (EC50) greater than 11000 nM.

Compound `C=CCn1c(C)cc(C(=O)CSc2nc(O)c3ccccc3n2)c1C` [2-[2-(2,5-dimethyl-1-prop-2-enyl-pyrrol-3-yl)-2-oxidanylidene-ethyl]sulfanyl-1H-quinazolin-4-one] registered a concentration for a half-maximal effect (EC50) of 609 nM.

With `OCCOCCNc1ncnc2c1cnn2-c1ccc(Cl)cc1` [2-[2-[[1-(4-chlorophenyl)-4-pyrazolo[3,4-d]pyrimidinyl]amino]ethoxy]ethanol], it took 595 nM to reach a half-maximal effect (EC50).

Compound `CCOC(=O)CSc1nc2ccccc2c(=O)n1NC(=O)c1ccccc1` [2-[(3-benzamido-4-keto-quinazolin-2-yl)thio]acetic acid ethyl ester] gave an EC50 of 933 nM.

`CCc1nnc(NC(=O)CSc2nc3c(cc2C#N)CCC3)s1` [2-[(3-cyano-1-pyrindan-2-yl)thio]-N-(5-ethyl-1,3,4-thiadiazol-2-yl)acetamide] yielded an EC50 greater than 407 nM.

`CCOC(=O)CSc1nc(-c2ccncc2)ccc1C#N` [2-[(3-cyano-6-pyridin-4-yl-2-pyridinyl)thio]acetic acid ethyl ester] returned an EC50 of 1710 nM.

Take `Cc1csc2nc(CSc3nc4ccccc4o3)cn12` [2-[(3-methyl-6-imidazo[2,1-b]thiazolyl)methylthio]-1,3-benzoxazole]: the concentration giving a half-maximal response (EC50) came out at 3920 nM.

For the compound `Nn1c(SCC(=O)Nc2ccc(F)cc2F)nnc1-c1cccnc1` [2-[(4-amino-5-pyridin-3-yl-1,2,4-triazol-3-yl)sulfanyl]-N-(2,4-difluorophenyl)acetamide], it took 6790 nM to reach a half-maximal effect (EC50).

Consider `CCc1nnc(NC(=O)CSc2nc(C)c3c(c2C#N)CCCC3)s1` [2-[(4-cyano-1-methyl-5,6,7,8-tetrahydroisoquinolin-3-yl)sulfanyl]-N-(5-ethyl-1,3,4-thiadiazol-2-yl)acetamide], for which a half-maximal effect (EC50) was put at 1230 nM.

The compound `O=C1CCCC(=O)C1=CNc1ccc(O)cc1` [2-[(4-hydroxyanilino)methylidene]cyclohexane-1,3-dione] gave an EC50 greater than 99000 nM.

`CCOC(=O)CSc1nc(-c2ccc3c(c2)OCO3)ccc1C#N` [2-[[6-(1,3-benzodioxol-5-yl)-3-cyano-2-pyridinyl]thio]acetic acid ethyl ester]: the EC50 stood at 5650 nM.

On to `O=C(CNc1ccccc1)Nc1ccc(F)cc1` [2-anilino-N-(4-fluorophenyl)acetamide], for which the EC50 came to 3190 nM.

For the compound `Cc1nc2sc(-c3ccccc3)cc2c(=O)n1-n1cccc1` [2-methyl-6-phenyl-3-(1-pyrrolyl)-4-thieno[2,3-d]pyrimidinone], a half-maximal response (EC50) required 112 nM.

For the compound `Cc1ccc(C(=O)Nc2nnc(-c3cccs3)s2)cc1C` [3,4-dimethyl-N-(5-thiophen-2-yl-1,3,4-thiadiazol-2-yl)benzamide], the EC50 is 786 nM.

`Cc1ccc(-n2c(C)cc(C(=O)COC(=O)c3c(C)noc3C)c2C)cc1` [3,5-dimethyl-4-isoxazolecarboxylic acid [2-[2,5-dimethyl-1-(4-methylphenyl)-3-pyrrolyl]-2-oxoethyl] ester]: the EC50 was 1630 nM.

As for `COc1cc(C2c3c(c(O)n(-c4ccccc4)c3O)ON2c2ccccc2)ccc1O` (configuration not stated) [3-(3-methoxy-4-oxidanyl-phenyl)-2,5-diphenyl-3a,6a-dihydro-3H-pyrrolo[3,4-d][1,2]oxazole-4,6-dione], the EC50 was greater than 33000 nM.

Compound `COc1ccc2nc3sc(C(=O)NCc4cccs4)c(N)c3cc2c1` [3-Amino-6-methoxy-thieno[2,3-b]quinoline-2-carboxylic acid (thiophen-2-ylmethyl)-amide] registered a half-maximal effective concentration (EC50) greater than 407 nM.

The compound `O=c1c2ccccc2nnn1CSc1nnc(COc2ccc(Cl)cc2)n1Cc1ccco1` [3-[[5-[(4-chloranylphenoxy)methyl]-4-(furan-2-ylmethyl)-1,2,4-triazol-3-yl]sulfanylmethyl]-1,2,3-benzotriazin-4-one] returned an EC50 of 3690 nM.

`COc1cccc(C(=O)Nc2cccc(-c3nnc(-c4ccccc4)o3)c2)c1` [3-methoxy-N-[3-(5-phenyl-1,3,4-oxadiazol-2-yl)phenyl]benzamide] displayed an EC50 of 1730 nM.

`COc1ccc(-c2nc3c(Br)c(N)c(Br)cc3o2)cc1` [4,6-bis(bromanyl)-2-(4-methoxyphenyl)-1,3-benzoxazol-5-amine]: it took 693 nM to reach a half-maximal effect (EC50).

In the case of `COc1ccc(CNc2ccc(C(=O)O)cc2)cc1` [4-(p-anisylamino)benzoic acid], a half-maximal effect (EC50) was put at 1500 nM.

Compound `CCCOC(=O)c1ccc(NC(=O)C2CCCO2)cc1` (configuration not stated) [4-(tetrahydrofuran-2-carbonylamino)benzoic acid propyl ester] gave an EC50 greater than 3670 nM.

`COc1cccc2c(O)c(C(=O)NCc3cccs3)cnc12` [4-Hydroxy-8-methoxy-quinoline-3-carboxylic acid (thiophen-2-ylmethyl)-amide] registered an EC50 of 3120 nM.

The assay is the same for the next values; noted with them: inactive by the depositor's call.
For `Fc1cnc(N2CCOCC2)nc1N1CCc2ccccc21` [1-[5-fluoro-2-(4-morpholinyl)-4-pyrimidinyl]indoline], the EC50 was 10200 nM.

`c1ccc2nc3c(nc2c1)c1ccccc1n3CCN1CCOCC1` [4-(2-indolo[3,2-b]quinoxalin-6-ylethyl)morpholine] yielded an EC50 of 11300 nM.

For orientation: EC50 means the concentration needed to bring the measured effect to its halfway point.
